We go through 25 molecules from patent publication US8008303B2, “Biphenyl derivatives and their use in treating hepatitis C” (AstraZeneca AB, priority 2005, dated 2011).

Like-named read-outs stand apart in the source and are kept apart here. A value given as a limit tells only on which side of the number the result lay.

The subject of data set [1] is HCV replicon cells Huh 9B. Briefly: HCV replicon assay (luciferase readout). Format: cell-based. The procedure, abridged: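 Compounds, made up at twice final strength (final DMSO 1%), were added to subgenomic replicon cells one day after plating. Incubation then ran 72 h at 37 °C, 5% CO2, without G418. Replication was quantified as firefly luciferase luminescence in lysed cells, with cytotoxicity assessed on a duplicate clear plate.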

Data set [2] deals with HCV replicon cells Huh 9B. Format: cell-based.
Setting [3] is: Hepatitis C virus, 72 h, concentration reducing replicon level (luciferase activity) by 50% vs untreated cell control, 72 h incubation.
The mark [4] stands for this setting: concentration reducing total cell area by 50% relative to DMSO controls, methylene blue, absorbance 620 nm, 72 h incubation.

With `CCCCS(=O)(=O)N1CCN(Cc2ccc(NC(=O)c3ccc(-c4cc(C(=O)Nc5ccc(N6CCOCC6)cc5)ccc4Cl)cc3)cc2)CC1` [Example 263, 6-Chloro-biphenyl-3,4′-dicarboxylic acid 4′-({4-[4-(butane-1-sulfonyl)piperazin-1-ylmethyl]-phenyl}-amide) 3-[(4-morpholin-4-yl-phenyl)-amide]], the IC50 (as a rule, the concentration that gives 50% inhibition) in data set [1] is under 1000 nM. Also, the TD50 result in data set [2] was “* (key: * < 50 μM; ** > 50 μM)”.
The molecule `Cc1ccc(C(=O)Nc2ccc(N3CCOCC3)cc2)cc1-c1ccc(C(=O)NCc2cccc(F)c2)cc1` [Example 5, 6-Methyl-biphenyl-3,4′-dicarboxylic acid 4′-(3-fluoro-benzylamide) 3-[(4-morpholin-4-yl-phenyl)-amide]] registered an IC50 in data set [1] of 1000 to 5000 nM. In data set [2], the TD50 entry is given as “** (key: * < 50 μM; ** > 50 μM)”.
Turning to `CCC(CC)C(=O)Nc1ccc(C)c(-c2ccc(C(=O)Nc3ccc(CN4CCS(=O)(=O)CC4)cc3)cc2)c1` [Example 181, 5′-(2-Ethyl-butyrylamino)-2′-methyl-biphenyl-4-carboxylic acid [4-(1,1-dioxo-1lambda*6*-thiomorpholin-4-ylmethyl)-phenyl]-amide], the IC50 in data set [1] (setting [3]) is under 1000 nM. Further, the TD50 entry in data set [2] (setting [4]) is listed as “* (* < 50 μM)”.
For `Cc1ccc(C(=O)NC2CCCCCC2)cc1-c1ccc(C(=O)Nc2ccc(CN3CCS(=O)(=O)CC3)cc2)cc1` [Example 147, 6-Methyl-biphenyl-3,4′-dicarboxylic acid 3-cycloheptylamide 4′-{[4-(1,1-dioxo-1lambda*6*-thiomorpholin-4-ylmethyl)-phenyl]-amide}], the IC50 in data set [1] lay within 1000 to 5000 nM. In data set [2], the TD50 result is “* (key: * < 50 μM; ** > 50 μM)”.
Turning to `Cc1ccc(C(=O)Nc2ccc(N3CCOCC3)cc2)cc1-c1ccc(NC(=O)c2cccc(Br)c2)cc1` [Example 103, 4′-(3-Bromo-benzoylamino)-6-methyl-biphenyl-3-carboxylic acid (4-morpholin-4-yl-phenyl)-amide], the IC50 in data set [1] (setting [3]) lay within 1000 to 5000 nM. The TD50 result in data set [2] (setting [4]) is given as “** (** > 50 μM)”.
The matching figures for `Cc1ccc(NC(=O)C2(C#N)CC2)cc1-c1ccc(C(=O)Nc2ccc(CN3CCS(=O)(=O)CC3)cc2)cc1` [Example 174, 5′-[(1-Cyano-cyclopropanecarbonyl)-amino]-2′-methyl-biphenyl-4-carboxylic acid [4-(1,1-dioxo-1lambda*6*-thiomorpholin-4-ylmethyl)-phenyl]-amide]: 1000 to 5000 nM and “* (* < 50 μM)”.
In data set [1], `Cc1cc(C(=O)Nc2ccc(N3CCOCC3)cc2)ccc1-c1cccc(C(=O)Nc2cccc(Br)c2)c1` [Example 64, 2′-Methyl-biphenyl-3,4′-dicarboxylic acid 3-[(3-bromo-phenyl)-amide] 4′-[(4-morpholin-4-yl-phenyl)-amide]] gave an IC50 of under 1000 nM. Besides, in data set [2], the TD50 result is recorded as “* (key: * < 50 μM; ** > 50 μM)”.
For `Cc1ccc(C(=O)Nc2ccc(N3CCOCC3)cc2)cc1-c1ccc(C(=O)Nc2cccc(NS(C)(=O)=O)c2)cc1` [Example 78, 6-Methyl-biphenyl-3,4′-dicarboxylic acid 4′-[(3-methanesulfonylamino-phenyl)-amide] 3-[(4-morpholin-4-yl-phenyl)-amide]], in that order: 1000 to 5000 nM and “* (key: * < 50 μM; ** > 50 μM)”.
For `Cc1ccc(C(=O)Nc2ccc(N3CCOCC3)cc2)cc1-c1ccc(C(=O)Nc2cccc(C(F)(F)F)c2)cc1` [Example 23, 6-Methyl-biphenyl-3,4′-dicarboxylic acid 3-[(4-morpholin-4-yl-phenyl)-amide] 4′-[(3-trifluoromethyl-phenyl)-amide]], in that order: 1000 to 5000 nM and “* (key: * < 50 μM; ** > 50 μM)”.
`Cc1ccc(NC(=O)C(C)C)cc1-c1ccc(C(=O)Nc2ccc(CN3CCS(=O)(=O)CC3)cc2)cc1` [Example 183, 5′-Isobutyrylamino-2′-methyl-biphenyl-4-carboxylic acid [4-(1,1-dioxo-1lambda*6*-thiomorpholin-4-ylmethyl)-phenyl]-amide] showed an IC50 in data set [1] (setting [3]) of under 1000 nM. Moreover, the TD50 result in data set [2] (setting [4]) is “* (* < 50 μM)”.
The matching figures for `Cc1ccc(NC(=O)C2CCOCC2)cc1-c1ccc(C(=O)Nc2ccc(CN3CCS(=O)(=O)CC3)cc2)cc1` [Example 170, Tetrahydro-pyran-4-carboxylic acid {4′-[4-(1,1-dioxo-1lambda*6*-thiomorpholin-4-ylmethyl)-phenylcarbamoyl]-6-methyl-biphenyl-3-yl}-amide]: under 1000 nM and “* (* < 50 μM)”.
In data set [1], `Cc1cc(NC(=O)c2ccc(C)c(-c3ccc(C(=O)Nc4ccc(CN5CCS(=O)(=O)CC5)cc4)cc3)c2)sn1` [Example 145, 6-Methyl-biphenyl-3,4′-dicarboxylic acid 4′-{[4-(1,1-dioxo-1lambda*6*-thiomorpholin-4-ylmethyl)-phenyl]-amide} 3-[(3-methyl-isothiazol-5-yl)-amide]] showed an IC50 of 1000 to 5000 nM. The TD50 entry in data set [2] is listed as “* (key: * < 50 μM; ** > 50 μM)”.
In data set [1] (setting [3]), `Cc1ccc(NC(=O)C2CC2)cc1-c1ccc(C(=O)NCc2cccc(Cl)c2)cc1` [Example 216, 5′-(Cyclopropanecarbonyl-amino)-2′-methyl-biphenyl-4-carboxylic acid 3-chloro-benzylamide] returned an IC50 of over 5000 nM. Further, in data set [2] (setting [4]), the TD50 entry is on record as “* (* < 50 μM)”.
For `Cc1ccc(NC(=O)c2ccc(N3CCOCC3)cc2)cc1-c1ccc(C(=O)Nc2ccc3cc[nH]c3c2)cc1` [Example 93, 2′-Methyl-5′-(4-morpholin-4-yl-benzoylamino)-biphenyl-4-carboxylic acid (1H-indol-6-yl)-amide], in that order: under 1000 nM and “** (** > 50 μM)”.
The matching figures for `Cc1ccc(C(=O)Nc2ccc(N3CCOCC3)cc2)cc1-c1ccc(NC(=O)c2ccc(CN(C)C)cc2)cc1` [Example 117, 4′-(4-Dimethylaminomethyl-benzoylamino)-6-methyl-biphenyl-3-carboxylic acid (4-morpholin-4-yl-phenyl)-amide]: 1000 to 5000 nM and “* (* < 50 μM)”.
The matching figures for `CCOC(=O)c1ccc(-c2cc(C(=O)Nc3ccc(N4CCOCC4)cc3)ccc2C)cc1` [Example 84, 2′-Methyl-5′-(4-morpholin-4-yl-phenylcarbamoyl)-biphenyl-4-carboxylic acid ethyl ester]: over 5000 nM and “** (** > 50 μM)”.
Regarding `Cc1ccc(NC(=O)NC2CCCCC2)cc1-c1ccc(C(=O)Nc2ccc(CN3CCS(=O)(=O)CC3)cc2)cc1` [Example 189, 5′-(3-Cyclohexyl-ureido)-2′-methyl-biphenyl-4-carboxylic acid [4-(1,1-dioxo-1lambda*6*-thiomorpholin-4-ylmethyl)-phenyl]-amide], the IC50 in data set [1] (setting [3]) is under 1000 nM. In data set [2] (setting [4]), the TD50 entry is “* (* < 50 μM)”.
Turning to `Cc1ccc(C(=O)Nc2ccc(N3CCOCC3)cc2)cc1-c1ccc(C(=O)Nc2ccc3[nH]ccc3c2)cc1` [Example 45, 6-Methyl-biphenyl-3,4′-dicarboxylic acid 4′-[(1H-indol-5-yl)-amide] 3-[(4-morpholin-4-yl-phenyl)-amide]], the IC50 in data set [1] lay in the range of 1000 to 5000 nM. For the same molecule, the TD50 result in data set [2] was “** (key: * < 50 μM; ** > 50 μM)”.
For `Cc1ccc(C(=O)Nc2ccc(N3CCOCC3)cc2)cc1-c1ccc(C(=O)Nc2cccc(C(=O)c3ccccc3)c2)cc1` [Example 19, 6-Methyl-biphenyl-3,4′-dicarboxylic acid 4′-[(3-benzoyl-phenyl)-amide] 3-[(4-morpholin-4-yl-phenyl)-amide]], in data set [1] (concentration reducing replicon level (luciferase activity) by 50% vs untreated cell control, 72 h incubation), the half-inhibitory concentration (IC50) is 1000 to 5000 nM. For the same molecule, the TD50 entry in data set [2] (setting [4]) is “** (** > 50 μM)”.
With `Cc1ccc(NC(=O)C2CC2)cc1-c1ccc(C(=O)Nc2ccc(CN3CCCC3)cc2)cc1` [Example 230, 5′-(Cyclopropanecarbonyl-amino)-2′-methyl-biphenyl-4-carboxylic acid (4-pyrrolidin-1-ylmethyl-phenyl)-amide], the IC50 in data set [1] (setting [3]) lay within 1000 to 5000 nM. In data set [2] (setting [4]), the TD50 entry was “* (* < 50 μM)”.
As for `Cc1ccc(C(=O)Nc2ccc(N3CCOCC3)cc2)cc1-c1ccc(NC(=O)c2ccc(N3CCOCC3)cc2)cc1` [Example 119, 6-Methyl-4′-(4-morpholin-4-yl-benzoylamino)-biphenyl-3-carboxylic acid (4-morpholin-4-yl-phenyl)-amide], the IC50 in data set [1] (setting [3]) lay in the range of 1000 to 5000 nM. Besides, in data set [2] (setting [4]), the TD50 entry is given as “** (** > 50 μM)”.
In turn, `Cc1ccc(C(=O)Nc2ccc(N3CCOCC3)cc2)cc1-c1ccc(C(=O)Nc2ccc3[nH]c(=O)[nH]c3c2)cc1` [Example 79, 6-Methyl-biphenyl-3,4′-dicarboxylic acid 3-[(4-morpholin-4-yl-phenyl)-amide] 4′-[(2-oxo-2,3-dihydro-1H-benzoimidazol-5-yl)-amide]] registered an IC50 in data set [1] of over 5000 nM. In data set [2], the TD50 entry was “* (key: * < 50 μM; ** > 50 μM)”.
Take `CCCCNS(=O)(=O)c1cccc(NC(=O)c2ccc(-c3cc(C(=O)Nc4ccc(N5CCOCC5)cc4)ccc3C)cc2)c1` [Example 21, 6-Methyl-biphenyl-3,4′-dicarboxylic acid 4′-[(3-butylsulfamoyl-phenyl)-amide] 3-[(4-morpholin-4-yl-phenyl)-amide]]: in data set [1], the IC50 lay in the range of 1000 to 5000 nM. The TD50 result in data set [2] is reported as “** (key: * < 50 μM; ** > 50 μM)”.
The matching figures for `Cc1cc(C(=O)Nc2ccc(N3CCOCC3)cc2)ccc1-c1cccc(C(=O)Nc2ccc3cn[nH]c3c2)c1` [Example 63, 2′-Methyl-biphenyl-3,4′-dicarboxylic acid 3-[(1H-indazol-6-yl)-amide] 4′-[(4-morpholin-4-yl-phenyl)-amide]]: under 1000 nM and “* (key: * < 50 μM; ** > 50 μM)”.
In data set [1] (setting [3]), `CCOC(=O)c1cccc(NC(=O)c2ccc(-c3cc(C(=O)Nc4ccc(N5CCOCC5)cc4)ccc3C)cc2)c1` [Example 32, 3-{[2′-Methyl-5′-(4-morpholin-4-yl-phenylcarbamoyl) -biphenyl-4-carbonyl]-amino}-benzoic acid ethyl ester] returned an IC50 of under 1000 nM. Also, the TD50 result in data set [2] (setting [4]) is listed as “** (** > 50 μM)”.
